The source of these data is ChEMBL document CHEMBL5291721, “A preclinical secondary pharmacology resource illuminates target-adverse drug reaction associations of marketed drugs” (Nat Commun, 2023).

For one assay, the target named is T1, Androgen receptor (Homo sapiens, UniProt P10275).
T1 sequence (P10275 whole entry): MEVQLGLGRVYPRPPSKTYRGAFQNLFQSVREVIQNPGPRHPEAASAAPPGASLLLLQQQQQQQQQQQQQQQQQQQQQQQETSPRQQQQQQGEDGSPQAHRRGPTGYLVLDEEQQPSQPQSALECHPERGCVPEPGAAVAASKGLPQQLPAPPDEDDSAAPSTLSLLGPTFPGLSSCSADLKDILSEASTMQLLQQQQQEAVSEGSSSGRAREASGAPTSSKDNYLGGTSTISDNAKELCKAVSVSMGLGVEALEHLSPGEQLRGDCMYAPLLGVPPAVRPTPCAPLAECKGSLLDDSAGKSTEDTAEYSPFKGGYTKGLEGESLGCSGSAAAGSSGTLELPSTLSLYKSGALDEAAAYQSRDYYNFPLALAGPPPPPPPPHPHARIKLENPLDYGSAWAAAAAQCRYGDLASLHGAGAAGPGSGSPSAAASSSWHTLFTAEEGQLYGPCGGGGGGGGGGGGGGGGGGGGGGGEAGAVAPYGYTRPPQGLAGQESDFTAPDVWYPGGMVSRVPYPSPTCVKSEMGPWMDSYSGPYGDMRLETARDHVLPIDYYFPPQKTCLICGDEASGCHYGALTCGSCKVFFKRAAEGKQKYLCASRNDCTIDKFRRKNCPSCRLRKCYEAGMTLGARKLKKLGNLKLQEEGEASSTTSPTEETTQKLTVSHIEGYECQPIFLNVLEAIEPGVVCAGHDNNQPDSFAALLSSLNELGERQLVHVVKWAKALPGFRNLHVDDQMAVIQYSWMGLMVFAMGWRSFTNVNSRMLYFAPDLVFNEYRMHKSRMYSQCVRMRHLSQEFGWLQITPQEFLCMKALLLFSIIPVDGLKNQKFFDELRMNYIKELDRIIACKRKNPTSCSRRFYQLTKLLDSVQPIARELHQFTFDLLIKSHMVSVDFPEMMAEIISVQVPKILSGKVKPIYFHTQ

The target in assay [1] is T2, Gamma-aminobutyric acid receptor subunit alpha-1 (Rattus norvegicus, UniProt P62813).
The target in assay [2] is T3, Amine oxidase [flavin-containing] A (Homo sapiens, UniProt P21397).
T3 sequence (P21397 whole entry): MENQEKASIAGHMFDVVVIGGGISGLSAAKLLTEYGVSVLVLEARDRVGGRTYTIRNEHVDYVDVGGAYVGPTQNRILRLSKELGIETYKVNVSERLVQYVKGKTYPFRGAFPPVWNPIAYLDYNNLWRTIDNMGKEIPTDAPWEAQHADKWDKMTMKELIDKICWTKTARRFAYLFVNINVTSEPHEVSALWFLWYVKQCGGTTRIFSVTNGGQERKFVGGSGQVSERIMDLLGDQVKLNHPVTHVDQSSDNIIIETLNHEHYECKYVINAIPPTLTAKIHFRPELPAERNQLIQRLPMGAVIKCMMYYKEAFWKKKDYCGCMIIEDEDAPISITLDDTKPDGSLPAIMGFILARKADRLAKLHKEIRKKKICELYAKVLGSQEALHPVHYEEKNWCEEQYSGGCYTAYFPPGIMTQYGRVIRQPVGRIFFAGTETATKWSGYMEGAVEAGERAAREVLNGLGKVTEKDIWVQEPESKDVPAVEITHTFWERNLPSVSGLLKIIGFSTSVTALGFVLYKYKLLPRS
Format: functional.

The next assay has as its target T4, Adenosine receptor A3 (Homo sapiens, UniProt P0DMS8).
T4 sequence (P0DMS8 whole entry): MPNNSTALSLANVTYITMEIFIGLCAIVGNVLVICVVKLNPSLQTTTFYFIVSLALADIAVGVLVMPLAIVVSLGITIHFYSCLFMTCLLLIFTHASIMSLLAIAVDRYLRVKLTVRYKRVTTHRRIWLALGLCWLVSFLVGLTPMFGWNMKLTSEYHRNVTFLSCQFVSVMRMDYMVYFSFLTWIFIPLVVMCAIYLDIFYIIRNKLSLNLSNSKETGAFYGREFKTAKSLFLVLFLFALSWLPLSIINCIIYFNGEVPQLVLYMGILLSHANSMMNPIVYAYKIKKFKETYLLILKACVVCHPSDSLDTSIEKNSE

For assay [3], the target named is Growth hormone secretagogue receptor type 1 (Homo sapiens, UniProt Q92847).
In assay [4] the target is Beta-1 adrenergic receptor (Homo sapiens, UniProt P08588). In kind it is functional.
Assay [5] deals with T2, Gamma-aminobutyric acid receptor subunit alpha-1. Format: functional.
For assay [6] the target is unchanged. This is another data set of the same source.
In assay [7] the target is T5, Alpha-2A adrenergic receptor (Homo sapiens, UniProt P08913).
T5 sequence (P08913 whole entry): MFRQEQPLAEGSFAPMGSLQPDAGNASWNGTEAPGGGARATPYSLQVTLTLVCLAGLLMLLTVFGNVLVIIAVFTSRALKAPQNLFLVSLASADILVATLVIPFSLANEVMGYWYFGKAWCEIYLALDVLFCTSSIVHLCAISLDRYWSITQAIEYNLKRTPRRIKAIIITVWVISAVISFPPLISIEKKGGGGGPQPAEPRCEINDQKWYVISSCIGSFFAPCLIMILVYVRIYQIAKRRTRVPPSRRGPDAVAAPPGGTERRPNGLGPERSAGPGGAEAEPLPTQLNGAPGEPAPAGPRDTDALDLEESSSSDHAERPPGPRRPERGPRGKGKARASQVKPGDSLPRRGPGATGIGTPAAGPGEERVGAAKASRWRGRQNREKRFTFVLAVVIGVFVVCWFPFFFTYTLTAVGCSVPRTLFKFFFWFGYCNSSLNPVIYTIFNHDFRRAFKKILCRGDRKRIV
In kind it is functional, cell-based.

In assay [8] the target is Neuronal acetylcholine receptor subunit alpha-4 (Homo sapiens, UniProt P43681).

The structures appear in SMILES notation. Bounds are passed on as bounds.
Note: assay procedure not described here.

Beta-1 adrenergic receptor, sequence (P08588 whole entry): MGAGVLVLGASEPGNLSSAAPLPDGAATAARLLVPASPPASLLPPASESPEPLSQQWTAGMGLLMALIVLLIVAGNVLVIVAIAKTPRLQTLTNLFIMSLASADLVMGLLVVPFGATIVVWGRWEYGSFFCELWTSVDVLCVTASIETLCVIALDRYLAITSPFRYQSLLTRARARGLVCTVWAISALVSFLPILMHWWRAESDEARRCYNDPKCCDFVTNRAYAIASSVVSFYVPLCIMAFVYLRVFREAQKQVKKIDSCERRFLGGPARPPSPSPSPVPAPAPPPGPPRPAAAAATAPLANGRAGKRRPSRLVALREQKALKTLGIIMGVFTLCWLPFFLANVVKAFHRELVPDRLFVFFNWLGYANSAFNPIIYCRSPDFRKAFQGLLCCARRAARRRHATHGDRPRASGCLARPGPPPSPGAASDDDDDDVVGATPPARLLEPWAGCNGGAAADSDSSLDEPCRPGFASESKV
T2 sequence (P62813 whole entry): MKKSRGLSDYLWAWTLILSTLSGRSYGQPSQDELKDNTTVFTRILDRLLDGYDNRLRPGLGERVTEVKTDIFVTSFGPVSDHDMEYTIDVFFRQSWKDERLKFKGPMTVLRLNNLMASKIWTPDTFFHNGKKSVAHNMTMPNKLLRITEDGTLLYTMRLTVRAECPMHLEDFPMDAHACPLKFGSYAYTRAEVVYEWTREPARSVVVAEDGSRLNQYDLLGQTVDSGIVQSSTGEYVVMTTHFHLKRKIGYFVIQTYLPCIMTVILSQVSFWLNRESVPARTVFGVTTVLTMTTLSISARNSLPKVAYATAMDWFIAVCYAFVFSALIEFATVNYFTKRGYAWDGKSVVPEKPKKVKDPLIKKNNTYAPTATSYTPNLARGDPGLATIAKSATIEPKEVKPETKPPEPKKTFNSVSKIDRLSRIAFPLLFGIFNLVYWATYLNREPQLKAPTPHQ
Neuronal acetylcholine receptor subunit alpha-4, sequence (P43681 whole entry): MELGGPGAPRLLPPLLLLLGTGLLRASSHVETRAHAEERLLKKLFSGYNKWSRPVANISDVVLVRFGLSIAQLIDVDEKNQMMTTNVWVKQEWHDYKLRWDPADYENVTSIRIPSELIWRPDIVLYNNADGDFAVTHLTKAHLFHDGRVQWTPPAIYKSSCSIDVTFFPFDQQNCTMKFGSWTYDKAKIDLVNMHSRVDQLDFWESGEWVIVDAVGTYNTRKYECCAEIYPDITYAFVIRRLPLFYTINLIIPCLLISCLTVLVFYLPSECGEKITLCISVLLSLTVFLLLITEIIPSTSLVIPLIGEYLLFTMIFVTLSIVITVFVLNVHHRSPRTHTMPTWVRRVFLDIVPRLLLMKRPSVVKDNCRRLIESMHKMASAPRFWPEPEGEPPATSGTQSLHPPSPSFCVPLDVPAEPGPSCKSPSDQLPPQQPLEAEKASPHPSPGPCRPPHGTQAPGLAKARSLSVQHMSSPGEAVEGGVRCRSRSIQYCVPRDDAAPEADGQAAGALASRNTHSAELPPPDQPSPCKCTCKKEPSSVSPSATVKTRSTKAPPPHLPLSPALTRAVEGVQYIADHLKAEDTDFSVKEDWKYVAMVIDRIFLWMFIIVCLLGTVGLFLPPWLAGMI
Growth hormone secretagogue receptor type 1, sequence (Q92847 whole entry): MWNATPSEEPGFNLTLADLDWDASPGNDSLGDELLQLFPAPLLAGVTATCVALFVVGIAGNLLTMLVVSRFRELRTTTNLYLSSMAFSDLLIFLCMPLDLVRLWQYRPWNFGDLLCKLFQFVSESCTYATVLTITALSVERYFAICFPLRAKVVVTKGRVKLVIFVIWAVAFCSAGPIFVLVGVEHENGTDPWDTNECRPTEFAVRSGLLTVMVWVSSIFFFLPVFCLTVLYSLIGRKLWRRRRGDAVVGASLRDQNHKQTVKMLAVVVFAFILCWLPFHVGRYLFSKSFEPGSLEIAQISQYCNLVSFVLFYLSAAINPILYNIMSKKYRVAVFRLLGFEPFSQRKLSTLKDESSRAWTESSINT

As usually defined, the AC50 is the midpoint of the concentration-response curve, whichever way the signal moves. A lower AC50 goes with activity at low concentration. On to `CCCCCCCC(=O)N[C@H](CN1CCCC1)[C@H](O)c1ccc2c(c1)OCCO2`, for which the AC50 (on Androgen receptor; in [1]) was greater than 30 µM in each case.
With `CC(C1=C(CCN(C)C)Cc2ccccc21)c1ccccn1` (stereo unspecified), the AC50 in assay [1] was greater than 30 µM.
Take `CC(=O)OCC[N+](C)(C)C` [ACETYLCHOLINE]: the AC50 is greater than 10 µM in [2]; greater than 30 µM at Adenosine receptor A3; greater than 30 µM in assay [3]; greater than 30 µM in [4]; greater than 30 µM in assay [1]; greater than 10 µM in assay [5]. The AC50 in assay [6] and in [7] was greater than 10 µM in each case.
For the compound `O=C1c2c(O)cccc2Cc2cccc(O)c21` [ANTHRALIN], in assay [1], the half-maximal activity concentration (AC50) was greater than 3 µM.
The compound `CNC(=O)C[C@@H](N)C(=O)N[C@@H](C(=O)N[C@@H]1C(=O)N2[C@@H]1SC(C)(C)[C@@H]2C(=O)O)c1ccc(O)cc1` [ASPOXICILLIN] showed an AC50 in assay [1] greater than 30 µM.
In assay [1], `C[C@@H](O)[C@H]1C(=O)N2C(C(=O)[O-])=C(SC3Cn4cnc[n+]4C3)[C@H](C)[C@H]12` (stereo partly specified) [BIAPENEM] had an AC50 greater than 30 µM.
As for `CCCCOc1ccc(CC(=O)NO)cc1` [BUFEXAMAC], the AC50 in assay [1] is greater than 30 µM.
`CO[C@@]1(NC(=O)CSCC#N)C(=O)N2C(C(=O)O)=C(CSc3nnnn3C)CS[C@@H]21` [CEFMETAZOLE]: the AC50 in assay [2], in assay [1], in [5] and in assay [7] was greater than 30 µM each time.
With `CO/N=C(\C(=O)N[C@@H]1C(=O)N2C(C(=O)[O-])=C(C[n+]3cccc4c3CCC4)CS[C@H]12)c1csc(N)n1` [CEFPIROME], the AC50 in assay [2], in assay [1], in assay [5], in [6] and in assay [7] was greater than 30 µM each time.
For the compound `Nc1ncnc(Nc2ccc(Cl)cc2)n1` [CHLORAZANIL], the AC50 in [1] was greater than 30 µM.
Take `CC[C@H]1OC(=O)[C@H](C)[C@@H](O[C@H]2C[C@@](C)(OC)[C@@H](O)[C@H](C)O2)[C@H](C)[C@@H](O[C@@H]2O[C@H](C)C[C@H](N(C)C)[C@H]2O)[C@](C)(OC)C[C@@H](C)C(=O)[C@H](C)[C@@H](O)[C@]1(C)O` [CLARITHROMYCIN]: the half-maximal activity concentration (AC50) (in [2]; at Adenosine receptor A3; in [3]; in assay [4]; in assay [1]; in assay [8]) was greater than 30 µM throughout. Also, in assay [7], the AC50 is greater than 30 µM.
With `C[C@@H]1C[C@H]2[C@@H]3C[C@H](F)C4=CC(=O)C=C[C@]4(C)[C@@]3(Cl)[C@@H](O)C[C@]2(C)[C@H]1C(=O)COC(=O)C(C)(C)C` [CLOCORTOLONE PIVALATE], in [1], the AC50 is greater than 30 µM.
On to `O=P(O)(O)C(Cl)(Cl)P(=O)(O)O` [CLODRONIC ACID], for which the AC50 in [1] is greater than 30 µM.
`Nc1ccncc1` [DALFAMPRIDINE] had an AC50 on Androgen receptor greater than 30 µM.
The same measure, in the same setting: the result for `Cc1onc(-c2c(Cl)cccc2Cl)c1C(=O)N[C@@H]1C(=O)N2[C@@H]1SC(C)(C)[C@@H]2C(=O)O` [DICLOXACILLIN] reads greater than 30 µM.
As for `C[C@H]1O[C@@H](O[C@H]2[C@@H](O)C[C@H](O[C@H]3[C@@H](O)C[C@H](O[C@H]4CC[C@@]5(C)[C@H](CC[C@@H]6[C@@H]5CC[C@]5(C)[C@@H](C7=CC(=O)OC7)CC[C@]65O)C4)O[C@@H]3C)O[C@@H]2C)C[C@H](O)[C@@H]1O` [DIGITOXIN], at Androgen receptor, the AC50 was greater than 30 µM.
Same read-out and setting: in the case of `OC(CCCN1CCCCC1)(c1ccccc1)c1ccccc1` [DIPHENIDOL] it was greater than 30 µM.
For the compound `O=C(CCCN1CC=C(n2c(=O)[nH]c3ccccc32)CC1)c1ccc(F)cc1` [DROPERIDOL], in [1], the AC50 is greater than 30 µM.
Take `CCn1cc(C(=O)O)c(=O)c2cc(F)c(N3CCNCC3)nc21` [ENOXACIN]: the AC50 is greater than 10 µM in assay [2]; greater than 30 µM on Adenosine receptor A3; greater than 30 µM in [3]; greater than 10 µM in assay [4]; greater than 30 µM in assay [1]; greater than 10 µM in assay [8]. Also, the AC50 in [5], in assay [6] and in assay [7] was greater than 10 µM throughout.
Compound `C[C@@H](O)[C@H]1C(=O)N2C(C(=O)O)=C([C@H]3CCCO3)S[C@H]12` [FAROPENEM] returned a half-maximal activity concentration (AC50) at Androgen receptor greater than 30 µM.
Consider `CCOC(=O)c1ccc(OC(=O)CCCCCNC(=N)N)cc1` [GABEXATE], for which, in assay [1], the AC50 was greater than 30 µM.
Same read-out and setting: in the case of `CCCCC/C=C\C/C=C\C/C=C\CCCCC(=O)O` [GAMOLENIC ACID] it was greater than 30 µM.
For `COCCOc1cnc(NS(=O)(=O)c2ccccc2)nc1` [GLYMIDINE], on Androgen receptor, the AC50 was greater than 30 µM.
`CCC(=O)O[C@]1(C(=O)COC(C)=O)CC[C@H]2[C@@H]3CCC4=CC(=O)CC[C@]4(C)[C@H]3[C@@H](O)C[C@@]21C` [HYDROCORTISONE ACEPONATE] showed an AC50 at Androgen receptor of 0.314 µM.
For the compound `Cc1cc(CCN2CCN(c3cccc(Cl)c3)CC2)n[nH]1` [MEPIPRAZOLE], the AC50 at Androgen receptor is greater than 30 µM.
Still for that read-out and setting: in the case of `CC[N+](C)(CC)CCOC(=O)C1c2ccccc2Oc2ccccc21` [METHANTHELINE] it was greater than 30 µM; in that of `CC(c1ccc(Cl)c(Cl)c1)N1N=C(N)CC1=O` (stereo unspecified) [MUZOLIMINE], greater than 30 µM.
For the compound `C1CNCCN1` [PIPERAZINE], the AC50 in assay [1] was greater than 30 µM.
On Androgen receptor, `c1cc(CN2CCCNCCNCCCNCC2)ccc1CN1CCCNCCNCCCNCC1` [PLERIXAFOR] registered an AC50 greater than 30 µM.
For `COCCCOc1ccnc(C[S+]([O-])c2nc3ccccc3[nH]2)c1C` (stereo unspecified) [RABEPRAZOLE], the AC50 is greater than 10 µM in assay [2]; 2.2 µM on Adenosine receptor A3; greater than 30 µM in [3]; greater than 10 µM in assay [4]; greater than 30 µM in [1]; greater than 10 µM in [8]. In addition, the AC50 in assay [5], in [6] and in assay [7] was greater than 10 µM in each case.
`O=C(NC(Cc1cc(=O)[nH]c2ccccc12)C(=O)O)c1ccc(Cl)cc1` (stereo unspecified) [REBAMIPIDE]: the AC50 in [1] is greater than 30 µM.
Take `CCCC(=O)O[C@H]1[C@H](C)O[C@@H](O[C@H]2[C@H](N(C)C)[C@@H](O)[C@H](O[C@H]3[C@@H](CC=O)C[C@@H](C)[C@@H](O)/C=C/C=C/C[C@@H](C)OC(=O)C[C@@H](O)[C@@H]3OC)O[C@@H]2C)C[C@@]1(C)OC(=O)CC` [ROKITAMYCIN]: on Androgen receptor, the AC50 is greater than 30 µM.
In assay [1], `O=C(Oc1ccccc1C(=O)O)c1ccccc1O` [SALSALATE] had an AC50 greater than 30 µM.
With `c1ccc2[nH]c(-c3cscn3)nc2c1` [THIABENDAZOLE], the AC50 at Androgen receptor was greater than 30 µM.
